The term IC50 denotes the point on the concentration scale where inhibition reaches its midpoint.

The source made the active and inactive calls. The rule behind the calls is not given here.

The assay has as its system Jurkat cell viability, ATP luminescence. The assay is described as follows: viability loss in human Jurkat cells – cell-based, luminescence, round 3, cytotoxicity control for T. brucei MetRS inhibitor project, late-stage follow-up (AID 1053130).
Take `CCN(CC)C(=O)C(=O)c1cn(CC(=O)Nc2cc(Oc3ccccc3F)cc(C(F)(F)F)c2)c2ccccc12`: the IC50 was > 83.3 µM (inactive). As to `CCN(CC)C(=O)C(=O)c1cn(CC(=O)Nc2cc(Oc3ccc(OC)cc3)cc(C(F)(F)F)c2)c2ccccc12`, the IC50 is 11.3 µM (inactive).

As for `O=C(Cn1cc(C(=O)C(=O)NCc2ccccc2)c2ccccc21)Nc1cc(Oc2ccccc2)cc(C(F)(F)F)c1`, the IC50 was 63.9 µM (inactive). Regarding `CCN(CC)C(=O)C(=O)c1cn(CC(=O)Nc2cccc(C(F)(F)F)c2)c2ccccc12`, the IC50 is 57.2 µM (inactive).

`CCN(CC)C(=O)C(=O)c1cn(CCNc2cccc(C(F)(F)F)c2)c2ccccc12`: the IC50 was 41.1 µM (inactive). For `CCN(CC)C(=O)C(=O)c1cn(CC(=O)Nc2cc(Oc3ccc(F)cc3)cc(C(F)(F)F)c2)c2ccccc12` the value was 50.1 µM (inactive). For the compound `Nc1c(Cl)ncnc1Nc1ccc(C(=O)O)cc1`, the IC50 is > 83.3 µM (inactive). Turning to `CCN(CC)C(=O)C(=O)c1cn(CC(=O)Nc2cc(Oc3ccccc3OC)cc(C(F)(F)F)c2)c2ccccc12`, the IC50 is > 83.3 µM (inactive). With `CCN(CC)C(=O)C(=O)c1cn(CCNc2cc(Oc3ccccc3)cc(C(F)(F)F)c2)c2ccccc12` the figure was 34.8 µM (inactive); with `CCN(CC)C(=O)C(=O)c1cn(CC(=O)Nc2cc(Oc3ccccc3)cc(C(F)(F)F)c2)c2ccccc12`, 21 µM (inactive). For the compound `O=C(Cc1ccc(Nc2nc3ccc(Br)cc3[nH]2)cc1)NCCc1cccs1`, the IC50 is > 27.8 µM (inactive). For `CCN(CC)C(=O)Cc1cn(CC(=O)Nc2cccc(C(F)(F)F)c2)c2ccccc12` the value was > 83.3 µM (inactive).

The record behind these values is PubChem BioAssay AID1053130 (The Scripps Research Institute Molecular Screening Center, 2014).
